Test results as given in article PMC10486429, “Investigations Using Albumin Binders to Modify the Tissue Distribution Profile of Radiopharmaceuticals Exemplified with Folate Radioconjugates” (Cancers, 2023).

Each compound was assayed on FR-positive KB tumor cells (assay: Uptake and internalization of 177Lu-RedFols in KB tumor cells). Conditions: 4 h incubation, percent of total added activity.
Type: cell-based, human
Method: The KB cells (a human cervical carcinoma cell line, subclone of HeLa cells, ACC-136) were purchased from the German Collection of Microorganisms and Cell Cultures (DSMZ, Germany). The tumor cells were cultured in folate-deficient RPMI medium (FFRPMI, Cell Culture Technologies GmbH, Gravesano, Switzerland) supplemented with 10% fetal calf serum, […] and antibiotics.
The experiments to investigate the uptake and internalization of ^177Lu-RedFols (50 MBq/nmol) were performed according to a previously established protocol (Supplementary Materials Section S9). The results were presented as a percentage of total added activity and listed as the average ± SD of 3–6 independent experiments, each performed in triplicates. The data were analyzed for statistical significance using a one-way ANOVA with Tukey’s post-comparison test (GraphPad Prism software version 8) considering a p-value < 0.05 as statistically significant. […]
S8. Radiolabeling and Radiolytic Stability of Folate Radioconjugates
Purpose: RedFols were labeled with lutetium-177 and assessed for their in vitro sta- […]
Methods: Folate conjugates were dissolved in Milli-Q water containing 4–6% sodium ascorbate (0.5 M) to obtain a final concentration of 1 mM. Radiolabeling of the RedFols with lutetium-177 (no-carrier-added, in 0.04 M HCl; ITM Medical Isotopes GmbH, Mu-nich, Germany) was performed using a mixture of sodium acetate (0.5 M) and HCl (0.05 M) at pH ~4.5 in the presence of L-ascorbic acid (6 mg) as previously reported for […]
RedFol-1 (6R and 6S). […]
S9. Uptake and Internalization of 177Lu-RedFols
Purpose: Uptake and internalization studies were performed with all folate radiocon-jugates using folate receptor (FR)-positive KB tumor cells.
Methods: The experiments were performed as previously reported. KB tumor cells (human cervical cancer cell line, ACC-136) were seeded into poly-lysine-coated 12-well plates (0.5 × 10^6 cells in 2 mL per well) using folate-free RPMI (FFRPMI) medium supplemented with 10% fetal calf serum, glutamine and antibiotics. The tumor cells were incubated overnight to allow adhesion and growth at 37 °C and 5% CO2. After removal of the supernatant, the KB cells were rinsed with PBS prior to the addition of FFRPMI me-dium without supplements (975 µL/well). The folate radioconjugates (50 MBq/nmol) were added to each well in a volume of 25 µL (0.75 pmol, 38 kBq). In some wells, KB tumor cells were co-incubated with excess folic acid (100 µM) to block the FRs on the cell surface.
After incubation of the well plates for 2 h or 4 h at 37 °C and 5% CO2, the KB tumor cells were rinsed three times with ice-cold PBS to determine the total uptake of the folate radi-oconjugates. In order to assess the internalized fraction, a stripping buffer (aqueous solu-tion of 0.1 M acetic acid and 0.15 M NaCl, pH 3) was applied to release FR-bound folate radioconjugates from the cell surface. Cell samples were lysed by addition of NaOH solu-tion (1 M, 1 mL) to each well. The cell lysates were counted for activity in a γ-counter (Perkin Elmer, Wallac Wizard 1480, Waltham, MA, USA). The protein concentrations of […]
each sample were determined using a Micro BCA Protein Assay kit (Pierce, Thermo Sci-entific) in order to standardize the measured activity to the average content of protein in […]
Results: The results are presented in the main article and in Figure S1.
Figure S1. Uptake and internalization of folate radioconjugates in KB tumor cells after an incubation period of 2 h and 4 h at 37°C. (A) Uptake of the folate radioconjugates in KB tumor cells. (B) Inter-nalized fraction of folate radioconjugates in KB tumor cells. The data are expressed as average ± SD […]
S10. FR-binding Affinity (KD Values) of 177Lu-RedFols
Purpose: The folate radioconjugates were investigated in vitro in order to determine their FR-binding affinities (KD values).
Methods: The determination of the KD values was performed as previously reported […]

`CN1c2c(nc(N)[nH]c2=O)NC[C@H]1CNc1ccc(C(=O)N[C@@H](CCC(=O)N[C@@H](CCCCNC(=O)CN2CCN(CC(=O)O)CCN(CC(=O)O)CCN(CC(=O)O)CC2)C(=O)N[C@@H](CCCCNC(=O)CCCCc2ccc(I)cc2)C(=O)O)C(=O)O)cc1` [[^177Lu]Lu-6R-RedFol-24, metal not drawn] and `CN1c2c(nc(N)[nH]c2=O)NC[C@H]1CNc1ccc(C(=O)N[C@@H](CCC(=O)N[C@@H](CCCCNC(=O)CN2CCN(CC(=O)O)CCN(CC(=O)O)CCN(CC(=O)O)CC2)C(=O)N[C@@H](CCCCNC(=O)CCCc2ccc(I)cc2)C(=O)O)C(=O)O)cc1` [[^177Lu]Lu-6R-RedFol-1, metal not drawn] are within error of each other in “Cell-Internalized Fraction” value: 15 ± 1% for the first, 12 ± 2% for the second.

`CN1c2c(nc(N)[nH]c2=O)NCC1CNc1ccc(C(=O)NC(CCC(=O)NC(CCCCNC(=O)CN2CCN(CC(=O)[O-])CCN(CC(=O)[O-])CCN(CC(=O)[O-])CC2)C(=O)NC(CCCCNC(=O)c2ccc(CNC(=O)CCCc3ccc(I)cc3)cc2)C(=O)O)C(=O)O)cc1.[177Lu+3]` (stereo not drawn) [[^177Lu]Lu-6S-RedFol-3] and `CN1c2c(nc(N)[nH]c2=O)NCC1CNc1ccc(C(=O)NC(CCC(=O)NC(CCCCNC(=O)CN2CCN(CC(=O)[O-])CCN(CC(=O)[O-])CCN(CC(=O)[O-])CC2)C(=O)NC(CCCCNC(=O)c2ccc(CNC(=O)CCCCc3ccc(I)cc3)cc2)C(=O)O)C(=O)O)cc1.[177Lu+3]` (stereo not drawn) [[^177Lu]Lu-6S-RedFol-25] are within error of each other in “Cell-Internalized Fraction” value: 23 ± 8% for the first, 31 ± 3% for the second.

`CN1c2c(nc(N)[nH]c2=O)NC[C@H]1CNc1ccc(C(=O)N[C@@H](CCC(=O)N[C@@H](CCCCNC(=O)CN2CCN(CC(=O)O)CCN(CC(=O)O)CCN(CC(=O)O)CC2)C(=O)N[C@@H](CCCCNC(=O)c2ccc(CNC(=O)CCCc3ccc(I)cc3)cc2)C(=O)O)C(=O)O)cc1` [[^177Lu]Lu-6R-RedFol-3, metal not drawn] and `CN1c2c(nc(N)[nH]c2=O)NC[C@H]1CNc1ccc(C(=O)N[C@@H](CCC(=O)N[C@@H](CCCCNC(=O)CN2CCN(CC(=O)O)CCN(CC(=O)O)CCN(CC(=O)O)CC2)C(=O)N[C@@H](CCCCNC(=O)c2ccc(CNC(=O)CCCCc3ccc(I)cc3)cc2)C(=O)O)C(=O)O)cc1` [[^177Lu]Lu-6R-RedFol-25, metal not drawn] are within error of each other in “Cell-Internalized Fraction” value: 19 ± 8% for the first, 17 ± 3% for the second.

For `CN1c2c(nc(N)[nH]c2=O)NCC1CNc1ccc(C(=O)NC(CCC(=O)NC(CCCCNC(=O)CN2CCN(CC(=O)[O-])CCN(CC(=O)[O-])CCN(CC(=O)[O-])CC2)C(=O)NC(CCCCNC(=O)CCCc2ccc(I)cc2)C(=O)O)C(=O)O)cc1.[177Lu+3]` (stereo not drawn) [[^177Lu]Lu-6S-RedFol-1], the “Cell-Internalized Fraction” value was 18 ± 1%.

`CN1c2c(nc(N)[nH]c2=O)NC[C@H]1CNc1ccc(C(=O)N[C@@H](CCC(=O)N[C@@H](CCCCNC(=O)CN2CCN(CC(=O)O)CCN(CC(=O)O)CCN(CC(=O)O)CC2)C(=O)N[C@@H](CCCCNC(=O)CCCCc2ccc(I)cc2)C(=O)O)C(=O)O)cc1` [[^177Lu]Lu-6R-RedFol-24, metal not drawn] and `CN1c2c(nc(N)[nH]c2=O)NC[C@H]1CNc1ccc(C(=O)N[C@@H](CCC(=O)N[C@@H](CCCCNC(=O)CN2CCN(CC(=O)O)CCN(CC(=O)O)CCN(CC(=O)O)CC2)C(=O)N[C@@H](CCCCNC(=O)CCCc2ccc(I)cc2)C(=O)O)C(=O)O)cc1` [[^177Lu]Lu-6R-RedFol-1, metal not drawn] are within error of each other in “Total Cell Uptake” value: 40 ± 6% for the first, 49 ± 11% for the second.

`CN1c2c(nc(N)[nH]c2=O)NCC1CNc1ccc(C(=O)NC(CCC(=O)NC(CCCCNC(=O)CN2CCN(CC(=O)[O-])CCN(CC(=O)[O-])CCN(CC(=O)[O-])CC2)C(=O)NC(CCCCNC(=O)c2ccc(CNC(=O)CCCc3ccc(I)cc3)cc2)C(=O)O)C(=O)O)cc1.[177Lu+3]` (stereo not drawn) [[^177Lu]Lu-6S-RedFol-3] and `CN1c2c(nc(N)[nH]c2=O)NCC1CNc1ccc(C(=O)NC(CCC(=O)NC(CCCCNC(=O)CN2CCN(CC(=O)[O-])CCN(CC(=O)[O-])CCN(CC(=O)[O-])CC2)C(=O)NC(CCCCNC(=O)c2ccc(CNC(=O)CCCCc3ccc(I)cc3)cc2)C(=O)O)C(=O)O)cc1.[177Lu+3]` (stereo not drawn) [[^177Lu]Lu-6S-RedFol-25] are within error of each other in “Total Cell Uptake” value: 44 ± 11% for the first, 55 ± 5% for the second.

`CN1c2c(nc(N)[nH]c2=O)NC[C@H]1CNc1ccc(C(=O)N[C@@H](CCC(=O)N[C@@H](CCCCNC(=O)CN2CCN(CC(=O)O)CCN(CC(=O)O)CCN(CC(=O)O)CC2)C(=O)N[C@@H](CCCCNC(=O)c2ccc(CNC(=O)CCCc3ccc(I)cc3)cc2)C(=O)O)C(=O)O)cc1` [[^177Lu]Lu-6R-RedFol-3, metal not drawn] and `CN1c2c(nc(N)[nH]c2=O)NC[C@H]1CNc1ccc(C(=O)N[C@@H](CCC(=O)N[C@@H](CCCCNC(=O)CN2CCN(CC(=O)O)CCN(CC(=O)O)CCN(CC(=O)O)CC2)C(=O)N[C@@H](CCCCNC(=O)c2ccc(CNC(=O)CCCCc3ccc(I)cc3)cc2)C(=O)O)C(=O)O)cc1` [[^177Lu]Lu-6R-RedFol-25, metal not drawn] are within error of each other in “Total Cell Uptake” value: 39 ± 14% for the first, 29 ± 8% for the second.

`CN1c2c(nc(N)[nH]c2=O)NCC1CNc1ccc(C(=O)NC(CCC(=O)NC(CCCCNC(=O)CN2CCN(CC(=O)[O-])CCN(CC(=O)[O-])CCN(CC(=O)[O-])CC2)C(=O)NC(CCCCNC(=O)CCCc2ccc(I)cc2)C(=O)O)C(=O)O)cc1.[177Lu+3]` (stereo not drawn) [[^177Lu]Lu-6S-RedFol-1] was tested, and the “Total Cell Uptake” value was 62 ± 6%.
